According to patent US20080269317A1, “Compounds for Covalent Binding to MD-2 and Effect on the Immune Response” (priority 2005, published 2008):

Tests used:
MD-2 [1] = target: T1, MD-2 (Homo sapiens, UniProt Q9Y6Y9); experiment: Binding to MD-2 monitored through the increase of the fluorescence (spectrofluorimeter); settings: 100 nM MD-2 added to 200 nM compound in milliQ water, 25° C., time dependent
T1 construct: made in house; host or cells: Escherichia coli
T1 sequence (Q9Y6Y9 19-160): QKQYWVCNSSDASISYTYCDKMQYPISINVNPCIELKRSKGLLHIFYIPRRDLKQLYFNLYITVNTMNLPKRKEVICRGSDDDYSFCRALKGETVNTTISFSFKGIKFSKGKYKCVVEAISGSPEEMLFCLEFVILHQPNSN
Text: In the first example of the invention we used recombinant MD-2 produced in bacteria Escherichia coli to test the binding of the compounds, which contain a hydrophobic group and a group, which binds to the cysteine residue. This protein has biological activity as endogenous MD-2 and added protein enables response to LPS to cells lacking endogenous MD-2. We tested binding of compounds 2-(4′-(iodoacetamido)anilino)naphthalene-6-sulfonic acid (IAANS) and N-(1-pyrene)maleimide, which in addition to the above mentioned properties also have the additional feature of fluorescence, which makes them useful to show the principle of the invention. […] Change of the environment, which is a result of binding of the compound into the hydrophobic pocket, causes an increase of the fluorescence intensity of compounds, which is detected by measuring the emission fluorescence spectra using the spectrofluorimeter. […]
IAANS (Molecular Probes, USA) is an example of a compound with an alkylhalide group, which is reactive with a thiol group, an anilinonaphthalene group as a hydrophobic group and a sulfonic group as an anionic group. […] IAANS concentration was determined by measuring the absorbance at 326 nm in methanol (extinction coefficient at 326 nm in methanol is 27 000 cm^−1M^−1). […] Binding to MD-2 increases the fluorescence intensities of both compounds. […]

MonoMac6 cells [2] = experiment: Inhibition of TNF-alpha synthesis (ELISA) in MonoMac6 cells stimulated with LPS; format: cell-based, human; settings: different concentrations of IAANS, 1 hour, then 20 ng/ml LPS; supernatant after 20 hours
Text: The effect of certain compound on the cell activation by LPS can also be detected by determination of the amount of cytokines, which are released by the cell activation. Addition of LPS to macrophage cells (or other cells, which normally express MD-2 and TLR4) causes the secretion of inflammatory cytokines such as TNF-alpha, IL-1, IL-8 . . . […] The amount of cytokines released into the media can be determined by the ELISA test. For the experiment we used monocytic cells MonoMac6. To 96-well plate we seeded 1×10^5 cells per well in media for MonoMac6 cells (RPMI with 10% FBS, nonessential aminoacids and OPI (both from Sigma)). 50 ng/ml of phorbol 12-myristate […] (Sigma) needed for differentiation into macrophages was added to cells. IAANS was added at different concentrations and incubated 1 hour, followed by the addition of 20 ng/ml LPS. 20 hours after the stimulation we took the supernatant, centrifuged it for 3 min on 13 000 rpm and performed the ELISA test for TNF-alpha.
To MonoMac6 cells, which express MD-2 and TLR4, we added different concentrations of IAANS and LPS and determined the concentration of TNF-alpha in media using the ELISA test.

MonoMac6 cells [3] = experiment: Activation of MonoMac6 cells without LPS, monitored through secreted TNF-alpha (ELISA); format: cell-based, human; settings: different concentrations of IAANS, no LPS; supernatant after 20 hours
Text: The activation of the host innate immune system can have an important role for the treatment of diseases such as microbial infections, cancer and other diseases, where the participation of the innate immunity system is important. It is important that the compound, which activates the innate immune system has no other effects. If the compound activates the cells of the innate immunity, the same cytokines are secreted as by the activation with LPS, so the same assay can be used. For the assay we have used human monocytic cells MonoMac6. Into the 96-well plate we seeded 1×10^5 cells per well in the media for MonoMac6 cells. We added 50 ng/ml of phorbol 12-myristate […] (Sigma), which is needed for differentiation of cells into macrophages. Then we added different concentrations of IAANS and incubated. 20 hours after the stimulation we took the cell supernatants, centrifuged for 3 min at 13 000 rpm and performed ELISA test for TNF-alpha.
To MonoMac6 cells we added different concentrations of IAANS. […] Cells secreted TNF-alpha, which stimulates the innate immune response, which is important for the acquired immunity at vaccination or treatment of disease such as cancer, where the activation of host immune response is desirable. […]

MD-2 [4] = target: T1, MD-2; experiment: Covalent binding to MD-2: fluorescence after GdnHCl denaturation and acetone precipitation, with or without iodoacetamide blocking
Protocol: In the second example of the invention we show, that binding of the compound to MD-2 is irreversible, therefore after binding to MD-2, compound remains permanently bound to the protein and therefore prevent binding of LPS or other ligands to MD-2.
The compounds with features mentioned above covalently bind to MD-2. The binding experiment was performed by adding to the concentration of MD-2 two times concentration excess of N-(1-pyrene) maleimide and incubated one hour at room temperature in the dark. The compound, which nonspecifically (noncovalently) bound to MD-2 was released from the protein by denaturation of the protein in 6 M guanidinium hydrochloride (GdnHCl). To the dissolved denatured protein we added five volumes of chilled (−20° C.) acetone and incubated for additional 60 min at −20° C. Then we centrifuged for 10 min at 13 000 rpm. […] The precipitate was dissolved in […] of 6 M GdnHCl and fluorescence emission spectrum was measured with excitation at 338 nm (FIG. 2). […] Binding of iodoacetamide inhibited binding of a compound to free cysteine residue on MD-2, which can be detected by lower fluorescence intensity of the compound.
We compared the fluorescence of MD-2, incubated with N-(1-pyrene) maleimide and to MD-2, with said compound, where we have previously added iodoacetamide for blocking free cysteine residues.

| Compound | change of the fluorescence intensity at emission maximum after addition of MD-2 (MD-2 [1]) | inhibition of LPS dependent synthesis of TNF-alpha (MonoMac6 cells [2]) | activation of MonoMac6 cells (secreted TNF-alpha) (MonoMac6 cells [3]) | covalent (irreversible) binding to MD-2: emission spectrum preserved in 6 M GdnHCl (MD-2 [4]; two times excess of compound, one hour at room temperature, denaturation in 6 M GdnHCl, acetone precipitation, excitation 338 nm) | effect of previous incubation with iodoacetamide on binding of N-(1-pyrene) maleimide to MD-2 (MD-2 [4]; five molar excess of iodoacetamide added beforehand to block free cysteine residues) |
| --- | --- | --- | --- | --- | --- |
| O=C(CI)Nc1ccc(Nc2ccc3cc(S(=O)(=O)O)ccc3c2)cc1 [IAANS, 2-(4′-(iodoacetamido)anilino)naphthalene-6-sulfonic acid] | increase of the IAANS fluorescence after binding to MD-2 | inhibited LPS dependent synthesis of TNF-alpha in a concentration-dependent manner | activated the cells in the concentration dependent manner |  |  |
| O=C1C=CC(=O)N1c1ccc2ccc3cccc4ccc1c2c34 [N-(1-pyrene) maleimide, N-(1-pyrene)maleimide] | increase of the N-(1-pyrene) maleimide fluorescence after binding to MD-2 |  |  | irreversibly bound to MD-2 |  |
| NC(=O)CI [iodoacetamide, reference compound] |  |  |  |  | inhibited binding of N-(1-pyrene) maleimide to MD-2 |
